For the assay, the target named is PA-IIL lectin (Pseudomonas aeruginosa, UniProt Q9HYN5). In words: Inhibition of binding of HRP-labeled fucosylated polymer (Fuc-PAA-biotin) to immobilized PA-IIL lectin. On the procedure: Biotinylated polymers of Fucose (Fuc-PAA-biotin, GlycoTech Corp.) are allowed to couple HRP-labeled streptavidin (KPL labs) overnight at 4° C. PA-IIL lectin is immobilized in plastic microtiter wells and allowed to react with the HRP-labeled fucosylated polymer. Binding is detected by TMB substrate followed by color development with 1 M H3PO4 (FIG. 20). Conditions chosen for the assay are coating with 3 μg/ml PA-IIL and incubation of inhibitor with 2 μg/ml of fucosylated polymer.
Chain of PA-IIL lectin (Q9HYN5 entry or part of it): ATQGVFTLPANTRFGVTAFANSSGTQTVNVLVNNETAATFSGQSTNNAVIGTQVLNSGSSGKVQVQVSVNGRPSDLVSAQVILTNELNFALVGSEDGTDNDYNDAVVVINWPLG

A word on the IC50: it is the midpoint of a concentration-inhibition curve. `O=C[C@@H](O)[C@@H](O)[C@H](O)[C@H](O)CO` [Mannose] had an IC50 of 95 µM.
As to `O=C[C@H](O)[C@@H](O)[C@@H](O)[C@H](O)CO` [Galactose], the “inhibition of PA-IIL lectin” value (negative control saccharide, data not shown) is recorded as “no inhibition”.

The values above are taken from patent US20040219158A1, “Compositions and methods for diagnosis and therapy of medical conditions involving infection with pseudomonas bacteria” (priority 2003, published 2004).
